Reference: US10829458B2 (Araxes Pharma LLC, priority 2015, dated 2020)

What follows are compounds tested against T1, KRAS G12C 1-169, his-tagged protein, GDP-loaded (Homo sapiens, UniProt P01116, G12C) (assay: Biochemical assay: covalent modification of KRAS G12C measured by mass spectrometry (RapidFire/TOF or Q-Exactive)). Details: covalent binding to KRAS G12C; compounds of structure (I).
T1 construct: KRAS G12C 1-169, his-tagged protein, GDP-loaded
In short: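 Covalent adduct formation read by intact-mass spectrometry (TOF or Q Exactive Plus, charge envelopes deconvoluted into modified and unmodified species) after formic acid quench. Reactions contained 2 μM GDP-bound KRAS G12C 1-169 (his-tag) in Hepes/NaCl/MgCl2 buffer plus 10, 30 or 100 μM final compound, held 30 min, 2 h or 24 h at room temperature.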

Row | SMILES | Binding %
1 | C=CC(=O)N1CCN(c2nc(OCC3CCN(C4CC4)CC3)nc3c(F)c(-c4c(O)cccc4F)c(Cl)cc23)CC1 [Example I-172, 1-(4-(6-chloro-2-((1-cyclopropyl-piperidin-4-yl)methoxy)-8-fluoro-7-(2-fluoro-6-hydroxyphenyl)quinazolin-4-yl)piperazin-1-yl) prop-2-en-1-one] | +++ (+++ indicates binding activity greater than 90%)
2 | C=CC(=O)N1CCN(c2nc(NC3CN(C(C)C)C3)nc3c(F)c(-c4c(C)ccc5[nH]ncc45)c(Cl)cc23)CC1 [Example I-173, 1-(4-(6-chloro-8-fluoro-2-((1-isopropyl-azetidin-3-yl)amino)-7-(5-methyl-1H-indazol-4-yl)quinazolin-4-yl)piperazin-1-yl) prop-2-en-1-one] | + (+ indicates binding activity up to 50%)
3 | C=CC(=O)N1CCN(c2nc(NC3CN(C(C)C)C3)nc3c(F)c(-c4c(O)cccc4F)c(Cl)cc23)CC1 [Example I-174, 1-(4-(6-chloro-8-fluoro-7-(2-fluoro-6-hydroxyphenyl)-2-((1-isopropyl-azetidin-3-yl)amino)quinazolin-4-yl)piperazin-1-yl) prop-2-en-1-one] | + (+ indicates binding activity up to 50%)
4 | C=CC(=O)N1CCN(c2nc(N)nc3c(F)c(-c4c(O)cccc4F)c(Cl)cc23)CC1 [Example I-175, 1-(4-(2-amino-6-chloro-8-fluoro-7-(2-fluoro-6-hydroxyphenyl)quinazolin-4-yl)piperazin-1-yl) prop-2-en-1-one] | ++ (++ indicates binding activity from 50 to 90%)
5 | C=CC(=O)N1CCN(c2nc(N3CC(N4CCN(C5CC5)CC4)C3)nc3c(F)c(-c4c(C)ccc5[nH]ncc45)c(Cl)cc23)CC1 [Example I-176, 1-(4-(6-chloro-2-(3-(4-cyclopropyl-piperazin-1-yl)azetidin-1-yl)-8-fluoro-7-(5-methyl-1H-indazol-4-yl)quinazolin-4-yl)piperazin-1-yl) prop-2-en-1-one] | ++ (++ indicates binding activity from 50 to 90%)
6 | C=CC(=O)N1CCN(c2nc(NC3CCN(C(C)(C)C)CC3)nc3c(F)c(-c4c(C)ccc5[nH]ncc45)c(Cl)cc23)CC1 [Example I-177, 1-(4-(2-((1-(tert-butyl)piperidin-4-yl)amino)-6-chloro-8-fluoro-7-(5-methyl-1H-indazol-4-yl)quinazolin-4-yl)piperazin-1-yl) prop-2-en-1-one] | +++ (+++ indicates binding activity greater than 90%)
7 | C=CC(=O)N1CCN(c2nc(OC3CN(C(C)C)C3)nc3c(F)c(-c4c(O)cccc4F)c(Cl)cc23)CC1 [Example I-178, 1-(4-(6-chloro-8-fluoro-7-(2-fluoro-6-hydroxyphenyl)-2-((1-isopropyl-azetidin-3-yl)oxy)quinazolin-4-yl)piperazin-1-yl)prop-2-en-1-one] | ++ (++ indicates binding activity from 50 to 90%)
8 | C=CC(=O)N1CCN(c2nc(N3CC(N4CC(F)(F)C4)C3)nc3c(F)c(-c4c(O)cccc4F)c(Cl)cc23)CC1 [Example I-179, 1-(4-(6-chloro-2-(3,3-difluoro-[1,3′-biazetidin]-1′-yl)-8-fluoro-7-(2-fluoro-6-hydroxyphenyl)quinazolin-4-yl)piperazin-1-yl) prop-2-en-1-one] | + (+ indicates binding activity up to 50%)
9 | C=CC(=O)N1CCN(c2nc(OCCC3CCN(C(C)C)CC3)nc3c(F)c(-c4c(O)cccc4F)c(Cl)cc23)CC1 [Example I-180, 1-(4-(6-chloro-8-fluoro-7-(2-fluoro-6-hydroxyphenyl)-2-(2-(1-isopropyl-piperidin-4-yl)ethoxy)quinazolin-4-yl)piperazin-1-yl) prop-2-en-1-one] | +++ (+++ indicates binding activity greater than 90%)
10 | C=CC(=O)N1CCN(c2nc(NC(=O)c3ccnc(C)c3)nc3c(F)c(-c4c(O)cccc4F)c(Cl)cc23)CC1 [Example I-181, N-(4-(4-acryloyl-piperazin-1-yl)-6-chloro-8-fluoro-7-(2-fluoro-6-hydroxyphenyl)quinazolin-2-yl)-2-methyliso-nicotinamide] | + (+ indicates binding activity up to 50%)
11 | C=CC(=O)N1CCN(c2nc(NC3CN(c4ncccn4)C3)nc3c(F)c(-c4c(O)cccc4F)c(Cl)cc23)CC1 [Example I-182, 1-(4-(6-chloro-8-fluoro-7-(2-fluoro-6-hydroxyphenyl)-2-((1-(pyrimidin-2-yl)azetidin-3-yl)amino)quinazolin-4-yl)piperazin-1-yl) prop-2-en-1-one] | + (+ indicates binding activity up to 50%)
12 | C=CC(=O)N1CCN(c2nc(OCCN(CC)CC)nc3c(F)c(-c4c(C)ccc5cn[nH]c45)c(Cl)cc23)CC1 [Example I-183, 1-(4-(6-chloro-2-(2-(diethyl-amino)ethoxy)-8-fluoro-7-(6-methyl-1H-indazol-7-yl)quinazolin-4-yl)piperazin-1-yl) prop-2-en-1-one] | +++ (+++ indicates binding activity greater than 90%)
13 | C=CC(=O)N1CCN(c2nc(NC3CCN(c4ncccn4)CC3)nc3c(F)c(-c4c(C)ccc5[nH]ncc45)c(Cl)cc23)CC1 [Example I-184, 1-(4-(6-chloro-8-fluoro-7-(5-methyl-1H-indazol-4-yl)-2-((1-(pyrimidin-2-yl)piperidin-4-yl)amino)quinazolin-4-yl)piperazin-1-yl) prop-2-en-1-one] | + (+ indicates binding activity up to 50%)
14 | C=CC(=O)N1CCN(c2nc(NC3CN(C4CCOCC4)C3)nc3c(F)c(-c4c(O)cccc4F)c(Cl)cc23)CC1 [Example I-185, 1-(4-(6-chloro-8-fluoro-7-(2-fluoro-6-hydroxyphenyl)-2-((1-(tetrahydro-2H-pyran-4-yl)azetidin-3-yl)amino)quinazolin-4-yl)piperazin-1-yl) prop-2-en-1-one] | + (+ indicates binding activity up to 50%)
15 | C=CC(=O)N1CCN(c2nc(OC3CN(C4CCOCC4)C3)nc3c(F)c(-c4c(O)cccc4F)c(Cl)cc23)CC1 [Example I-186, 1-(4-(6-chloro-8-fluoro-7-(2-fluoro-6-hydroxyphenyl)-2-((1-(tetrahydro-2H-pyran-4-yl)azetidin-3-yl)oxy)quinazolin-4-yl)piperazin-1-yl) prop-2-en-1-one] | ++ (++ indicates binding activity from 50 to 90%)
16 | C=CC(=O)N1CCN(c2nc(NC3CN(c4ncccn4)C3)nc3c(F)c(-c4c(C)ccc5[nH]ncc45)c(Cl)cc23)CC1 [Example I-187, 1-(4-(6-chloro-8-fluoro-7-(5-methyl-1H-indazol-4-yl)-2-((1-(pyrimidin-2-yl)azetidin-3-yl)amino)quinazolin-4-yl)piperazin-1-yl) prop-2-en-1-one] | + (+ indicates binding activity up to 50%)
17 | C=CC(=O)N1CCN(c2nc(NC3CC4CCC(C3)N4C3CC3)nc3c(F)c(-c4c(C)ccc5[nH]ncc45)c(Cl)cc23)CC1 (stereo not drawn) [Example I-188, 1-(4-(6-chloro-2-((8-cyclopropyl-8-azabicyclo[3.2.1]octan-3-yl)amino)-8-fluoro-7-(5-methyl-1H-indazol-4-yl)quinazolin-4-yl)piperazin-1-yl) prop-2-en-1-one] | ++ (++ indicates binding activity from 50 to 90%)
18 | C=CC(=O)N1CCN(c2nc(N)nc3c(F)c(-c4c(C)ccc5[nH]ncc45)c(Cl)cc23)CC1 [Example I-189, 1-(4-(2-amino-6-chloro-8-fluoro-7-(5-methyl-1H-indazol-4-yl)quinazolin-4-yl)piperazin-1-yl) prop-2-en-1-one] | ++ (++ indicates binding activity from 50 to 90%)
19 | C=CC(=O)N1CCN(c2nc(NC3CCN(c4ncccn4)CC3)nc3c(F)c(-c4c(O)cccc4F)c(Cl)cc23)CC1 [Example I-190, 1-(4-(6-chloro-8-fluoro-7-(2-fluoro-6-hydroxyphenyl)-2-((1-(pyrimidin-2-yl)piperidin-4-yl)amino)quinazolin-4-yl)piperazin-1-yl) prop-2-en-1-one] | + (+ indicates binding activity up to 50%)
20 | C=CC(=O)N1CCN(c2nc(N)nc3c(F)c(-c4cc(O)cc5ccccc45)c(Cl)cc23)CC1 [Example I-191, 1-(4-(2-amino-6-chloro-8-fluoro-7-(3-hydroxy-naphthalen-1-yl)quinazolin-4-yl)piperazin-1-yl) prop-2-en-1-one] | +++ (+++ indicates binding activity greater than 90%)
21 | C=CC(=O)N1CCN(c2nc(OCCC3CCN(C4CC4)CC3)nc3c(F)c(-c4c(O)cccc4F)c(Cl)cc23)CC1 [Example I-192, 1-(4-(6-chloro-2-(2-(1-cyclopropyl-piperidin-4-yl)ethoxy)-8-fluoro-7-(2-fluoro-6-hydroxyphenyl)quinazolin-4-yl)piperazin-1-yl) prop-2-en-1-one] | +++ (+++ indicates binding activity greater than 90%)
22 | C=CC(=O)N1CCN(c2nc(OC3CCN(C(C)C)CC3)nc3c(F)c(-c4c(C)ccc5[nH]ncc45)c(Cl)cc23)CC1 [Example I-193, 1-(4-(6-chloro-8-fluoro-2-((1-isopropyl-piperidin-4-yl)oxy)-7-(5-methyl-1H-indazol-4-yl)quinazolin-4-yl)piperazin-1-yl) prop-2-en-1-one] | +++ (+++ indicates binding activity greater than 90%)
23 | C=CC(=O)N1CCN(c2nc(OC3CCN(C4CC4)CC3)nc3c(F)c(-c4c(C)ccc5[nH]ncc45)c(Cl)cc23)CC1 [Example I-194] | + (+ indicates binding activity up to 50%)
24 | C=CC(=O)N1CCN(c2nc(NC3CCN(C4CC4)CC3)nc3c(F)c(-c4c(C)ccc5cn[nH]c45)c(Cl)cc23)CC1 [Example I-196, 1-(4-(6-chloro-2-((1-cyclo-propylpiperidin-4-yl)amino)-8-fluoro-7-(6-methyl-1H-indazol-7-yl)quinazolin-4-yl)piperazin-1-yl) prop-2-en-1-one] | ++ (++ indicates binding activity from 50 to 90%)
